In the Kinase Knowledgebase extract (Sharma et al. 2016):

Experiments:
MAPK14 (human) [1] = target: MAPK14 (human) (UniProt Q16539); test: Inhibition of MAPK14 Kinase Activity
MAPK14 (human) [2] = target: MAPK14 (human) (UniProt Q16539); test: Assessment of MAPK14 Kinase Activity

Chain of MAPK14 (human) (Q16539 whole entry, looked up): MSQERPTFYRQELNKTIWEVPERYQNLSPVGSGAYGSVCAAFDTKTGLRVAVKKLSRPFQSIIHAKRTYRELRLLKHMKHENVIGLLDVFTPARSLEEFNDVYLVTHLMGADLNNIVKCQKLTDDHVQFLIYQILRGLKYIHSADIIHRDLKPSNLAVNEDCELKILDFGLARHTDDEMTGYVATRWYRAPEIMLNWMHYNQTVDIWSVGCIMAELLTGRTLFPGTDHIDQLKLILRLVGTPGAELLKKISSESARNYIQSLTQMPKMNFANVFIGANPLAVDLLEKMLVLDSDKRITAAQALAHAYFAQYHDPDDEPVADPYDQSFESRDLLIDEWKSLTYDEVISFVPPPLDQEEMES

Row | IC50 (MAPK14 (human) [1]) [µM] | IC50 (MAPK14 (human) [2]) [µM] | Structure (SMILES)
1 | < 10 | < 10 | Cc1ccc(CNC(=O)c2ccc(-c3cc(C(=O)NC4CC4)cc(F)c3C)[n+]([O-])c2)cc1C
2 | < 10 | < 10 | CCC(C)(C)NC(=O)c1ccc(-c2cc(C(=O)NC3CC3)cc(F)c2C)[n+]([O-])c1
3 | < 10 | < 10 | Cc1c(F)cc(C(=O)NC2CC2)cc1-c1ccc(C(=O)NC(C)c2ccc(Cl)cc2)c[n+]1[O-] (centres undefined)
4 | < 10 | < 10 | CCC1CCCN(C(=O)c2ccc(-c3cc(C(=O)NC4CC4)cc(F)c3C)[n+]([O-])c2)C1 (centres undefined)
5 | < 10 | < 10 | Cc1c(F)cc(C(=O)NC2CC2)cc1-c1ccc(C(=O)NCc2ccc(C(F)(F)F)cc2C(F)(F)F)c[n+]1[O-]
6 | < 10 | < 10 | Cc1ccc(C)c(CNC(=O)c2ccc(-c3cc(C(=O)NC4CC4)cc(F)c3C)[n+]([O-])c2)c1
7 | < 10 | < 10 | CCCNC(=O)c1ccc(-c2cc(C(=O)NC3CC3)cc(F)c2C)[n+]([O-])c1
8 | < 10 | < 10 | Cc1c(F)cc(C(=O)NC2CC2)cc1-c1ccc(C(=O)N[C@H](C)C(C)C)c[n+]1[O-]
9 | < 10 | < 10 | Cc1c(F)cc(C(=O)NC2CC2)cc1-c1ccc(C(=O)NCC(C)(C)C)c[n+]1[O-]
10 | < 10 | < 10 | COC[C@H](C)NC(=O)c1ccc(-c2cc(C(=O)NC3CC3)cc(F)c2C)[n+]([O-])c1
11 | < 10 | < 10 | CCc1ccccc1CNC(=O)c1ccc(-c2cc(C(=O)NC3CC3)cc(F)c2C)[n+]([O-])c1
12 | < 10 | < 10 | CCC(CC)NC(=O)c1ccc(-c2cc(C(=O)NC3CC3)cc(F)c2C)[n+]([O-])c1
